# Results taken from patent US8703789B2, “Compositions incorporating sesamin-class compounds and vitamin B1 class compounds” (Suntory Holdings Limited, priority 2007, dated 2014).
# Where a name gives a salt, the structure may show the parent alone.
# System: Balb/c male mice kept immersed in water (stress from sleep deprivation)
# Test: Water immersion sleep deprivation test, weight-loaded swimming; critical swimming time = time to nose first submerged for at least 10 seconds (Examples 1 and 3)
# Conditions: for anti-fatigue action: fatigue animal models
# From the text: The anti-fatigue action in the present invention, or its effectiveness as “anti-fatigue agents” can be verified by such a method as measuring the swimming time in a water immersion sleep deprivation test. Mice that have been kept in an environment such as water immersion where they are unable to have a good sleep or take a rest position so they cannot have a physical or mental rest are forced to swim under a weight load and the critical swimming time (e.g., the time it takes for the mouse to have its nose first submerged in the water for a period of ten seconds or longer or the time it takes for the mouse to have its nose finally submerged in the water (and incapable of rising up to its surface again)) is measured to confirm the degree of their fatigue. Since this is an animal model for physical or mental fatigue, an extension of the swimming time as achieved by administering it with the test substance means the verification of resistance to fatigue, as exemplified by prevention or relief of physical and/or mental fatigue or any accompanying muscle or other pains, a sufficient increase in body strength to extend the time to total exhaustion, and maintenance of physical vigor in the tired model.
# The anti-fatigue effect was evaluated by the following partial modification of the method of Tanaka et al. (Neuroscience, Let. 352, 159-162, 2003): Balb/c male mice (8-week old) were purchased from Japan SLC, Inc. and conditioned in a test environment for a week, and the animals that had grown normally were subjected to the test. They were divided into five groups, as identified in Table 1, such that each group consisted of 10 animals and had the same average body weight. […] Four of those five groups were water immersion groups under stress from sleep deprivation, which were kept in breeding cages, not on paper chips but in tap water (23° C.) supplied to a depth of 7 mm, thereby depriving the mice of sleep. During a two-day immersion in water to deprive sleep, the mice were administered orally with the associated test samples for two days on a one-dose-a-day basis. Of the two test samples, the sesamin-class compounds were dissolved in olive oil and the thiamin in distilled water. The order of administration was the thiamin followed by the sesamin-class compounds; as controls, distilled water and olive oil were administered orally.
# After two days of keeping under immersion in water or normal keeping, each mouse was fitted with a weight at the tail which corresponded to 8% of its body weight, and was allowed to swim in a water tank of 18 cm^φ that was filled with water to a depth of 30 cm; the time it took for each mouse to have its nose first submerged in the water for a period of at least 10 seconds was measured as the critical swimming time. […] The degree by which the administration of the test samples (sesamin-class compounds and/or vitamin B1 class compound) could shorten the critical swimming time was measured to evaluate the anti-fatigue action of the test samples.
# The anti-fatigue action from independent administration of vitamin B1 class compound was evaluated as in Example 1, except that the mice were divided into nine groups as identified in Tables 3 and 4.
structure (smiles),measurement,setting,value
"Cc1ncc(C[n+]2csc(CCO)c2C)c(N)n1 [vitamin B1 class compound, thiamine hydrochloride]",critical swimming time,"Example 1, FIG. 1, 50 mg/kg vitamin B1 class compound oral, once a day for two days (comparative group 2) vs comparative group 1",no recognizable change in critical swimming time
same,critical swimming time,"Example 3, FIG. 3, 5 mg/kg vitamin B1 class compound alone (reference group 1) vs comparative group 7",comparable
same,critical swimming time,"Example 3, FIG. 3, 10 mg/kg vitamin B1 class compound alone (reference group 2) vs comparative group 7",comparable
same,critical swimming time,"Example 3, FIG. 3, 25 mg/kg vitamin B1 class compound alone (reference group 3) vs comparative group 7",comparable
same,critical swimming time,"Example 3, FIG. 4, 50 mg/kg vitamin B1 class compound alone (reference group 4) vs comparative group 8",comparable
same,critical swimming time,"Example 3, FIG. 4, 100 mg/kg vitamin B1 class compound alone (reference group 5) vs comparative group 8",longer
same,anti-fatigue action,"only vitamin B1 class compound orally, 5 to 10 mg/kg (FIG. 3)",no anti-fatigue action was observed
same,anti-fatigue action,"vitamin B1 class compound independently, 5 mg/kg (FIGS. 3 and 4)",no anti-fatigue action was observed
same,anti-fatigue action,"vitamin B1 class compound independently, 10 mg/kg (FIGS. 3 and 4)",no anti-fatigue action was observed
same,anti-fatigue action,"vitamin B1 class compound independently, 25 mg/kg (FIGS. 3 and 4)",no anti-fatigue action was observed
same,anti-fatigue action,"vitamin B1 class compound independently, 50 mg/kg (FIGS. 3 and 4)",no anti-fatigue action was observed
same,anti-fatigue action,"vitamin B1 class compound independently, 100 mg/kg (FIGS. 3 and 4)",enhanced
